Source: ChEMBL document CHEMBL1151474, “Replication of Colonic Crohn's Disease Mucosal Escherichia coli Isolates within Macrophages and Their Susceptibility to Antibiotics” (Antimicrob Agents Chemother, 2008)
In brackets after ≈: the same amount, converted by molar mass. Activity calls are given as the source filed them. No cut-off for these calls is given here.

What was measured:
Escherichia coli [1] = experiment: Antibacterial activity against Escherichia coli isolates isolated from patients with Crohn's disease at 5 ug/disk by susceptibility testing disk method; type: functional
Escherichia coli [2] = experiment: Antibacterial activity against Escherichia coli isolate HM154 isolated from colonic mucosal biopsies of patient with Crohn's disease after 24 hrs by Etest antibiotic concentration gradient method; type: functional; settings: isolate HM154, 24 h
Escherichia coli [3] = experiment: Antibacterial activity against Escherichia coli isolate HM580 isolated from colonic mucosal biopsies of patient with Crohn's disease after 24 hrs by Etest antibiotic concentration gradient method; type: functional; settings: isolate HM580, 24 h
Escherichia coli [4] = experiment: Antibacterial activity against Escherichia coli isolate HM605 isolated from colonic mucosal biopsies of patient with Crohn's disease after 24 hrs by Etest antibiotic concentration gradient method; type: functional; settings: isolate HM605, 24 h
Escherichia coli [5] = experiment: Antibacterial activity against Escherichia coli isolate HM605 isolated from colonic mucosal biopsies of patient with Crohn's disease
Escherichia coli [6] = experiment: Antibacterial activity against gentamicin-treated internalized Escherichia coli isolate HM605 isolated from colonic mucosal biopsies of patient with Crohn's disease in mouse J774A1 cells assessed as intracellular killing of bacteria at […] ug/ml after 3 hrs; type: functional, J774.A1
Escherichia coli [7] = experiment: Antibacterial activity against extracellular Escherichia coli isolate HM605 isolated from colonic mucosal biopsies of patient with Crohn's disease at 0.01 to 10 ug/ml after 3 hrs; type: functional, organism-based
Escherichia coli [8] = experiment: Antibacterial activity against gentamicin-treated internalized Escherichia coli isolate HM605 in mouse J774A1 cells isolated from colonic mucosal biopsies of patient with Crohn's disease assessed as intracellular killing of bacteria at 10% compound Cmax after 3 hrs; type: functional, J774.A1
Escherichia coli [9] = experiment: Antibacterial activity against gentamicin-treated internalized Escherichia coli isolate LF82 in mouse J774A1 cells isolated from chronic ileal lesions of patient with Crohn's disease assessed as intracellular killing of bacteria at 10% compound Cmax after 3 hrs; type: functional, J774.A1
Escherichia coli [10] = experiment: Antibacterial activity against gentamicin-treated internalized Escherichia coli isolate HM580 in mouse J774A1 cells isolated from colonic mucosal biopsies of patient with Crohn's disease assessed as intracellular killing of bacteria at 10% compound Cmax after 3 hrs; type: functional, J774.A1
Escherichia coli [11] = experiment: Antibacterial activity against gentamicin-treated internalized Escherichia coli isolate HM615 in mouse J774A1 cells isolated from colonic mucosal biopsies of patient with Crohn's disease assessed as intracellular killing of bacteria at 10% compound Cmax after 3 hrs; type: functional, J774.A1
J774.A1 [12] = experiment: Cytotoxicity against mouse J774A1 cells assessed as macrophage number at […] ug/ml after 3 hrs by total cell protein assay; type: cell-based; settings: j774.a1, 3 h
Escherichia coli [13] = experiment: Antibacterial activity against Escherichia coli isolate HM615 isolated from colonic mucosal biopsies of patient with Crohn's disease after 24 hrs by Etest antibiotic concentration gradient method; type: functional; settings: isolate HM615, 24 h
Escherichia coli [14] = experiment: Antibacterial activity Escherichia coli isolate HM413 isolated from ileo-colonic mucosal biopsies of patient with Crohn's disease after 24 hrs by Etest antibiotic concentration gradient method; type: functional; settings: isolate HM413, 24 h
Escherichia coli [15] = experiment: Antibacterial activity Escherichia coli isolate HM419 isolated from ileo-colonic mucosal biopsies of patient with Crohn's disease after 24 hrs by Etest antibiotic concentration gradient method; type: functional; settings: isolate HM419, 24 h
Escherichia coli [16] = experiment: Antibacterial activity against Escherichia coli isolate HM95 isolated from ileal mucosal biopsies of patient with Crohn's disease after 24 hrs by Etest antibiotic concentration gradient method; type: functional; settings: isolate HM95, 24 h
Escherichia coli [17] = experiment: Antibacterial activity against mucosa-associated Escherichia coli isolate HM428 isolated from patient with irritable bowel syndrome or sporadic polyps after 24 hrs by Etest antibiotic concentration gradient method; type: functional; settings: isolate HM428, 24 h
Escherichia coli [18] = experiment: Antibacterial activity against mucosa-associated Escherichia coli isolate HM454 isolated from patient with irritable bowel syndrome or sporadic polyps after 24 hrs by Etest antibiotic concentration gradient method; type: functional; settings: isolate HM454, 24 h
Escherichia coli [19] = experiment: Antibacterial activity against mucosa-associated Escherichia coli isolate HM456 isolated from patient with irritable bowel syndrome or sporadic polyps after 24 hrs by Etest antibiotic concentration gradient method; type: functional; settings: isolate HM456, 24 h
Escherichia coli [20] = experiment: Antibacterial activity against Escherichia coli K-12 after 24 hrs by Etest antibiotic concentration gradient method; type: functional; settings: K-12, 24 h
J774.A1 [21] = experiment: Cytotoxicity against mouse J774A1 cells assessed as release of adenylate kinase at 100 ug/ml after 3 hrs […] relative to control; type: cell-based; settings: j774.a1, 3 h
Escherichia coli [22] = experiment: Antibacterial activity against Escherichia coli ATCC 25922 after 24 hrs by Etest antibiotic concentration gradient method; type: functional, organism-based
[23] = Cmax in immunodeficiency virus-infected patient at 800 mg, po by high-pressure liquid chromatography; settings: human, in vivo
Escherichia coli [24] = experiment: Antibacterial activity against mucosa-associated Escherichia coli isolates isolated from patients with Crohn's disease by disk diffusion method; type: functional
Escherichia coli [25] = experiment: Antibacterial activity against gentamicin-treated internalized Escherichia coli isolate HM605 isolated from colonic mucosal biopsies of patient with Crohn's disease in mouse J774A1 cells assessed as intracellular killing of bacteria at 1.7 ug/ml after 3 hrs; type: functional, J774.A1
J774.A1 [26] = experiment: Cytotoxicity against mouse J774A1 cells assessed as macrophage number at 1.7 ug/ml after 3 hrs by total cell protein assay; type: cell-based; settings: j774.a1, 3 h
[27] = Cmax in patient with Billroth-II gastrectomy at 250 mg, po; type: ADME, organism-based; parameters: dose 250 mg, route oral; settings: human, in vivo
[28] = Cmax in healthy human at 160 mg administered orally; settings: in vivo, po
Homo sapiens = species: Homo sapiens; experiment: Cmax in human; type: ADME, organism-based; settings: in vivo
Escherichia coli [29] = experiment: Antibacterial activity against gentamicin-treated internalized Escherichia coli isolate HM605 in mouse J774A1 cells isolated from colonic mucosal biopsies of patient with Crohn's disease assessed as intracellular killing of bacteria at 18 ug/ml after 3 hrs; type: functional, organism-based; settings: J774.A1
Escherichia coli [30] = experiment: Antibacterial activity against gentamicin-treated internalized Escherichia coli isolate HM605 in mouse J774A1 cells isolated from colonic mucosal biopsies of patient with Crohn's disease assessed as intracellular killing of bacteria at 18 ug/ml after 6 hrs; type: functional, organism-based; settings: J774.A1
Escherichia coli [31] = experiment: Antibacterial activity against gentamicin-treated internalized Escherichia coli isolate HM605 in mouse J774A1 cells isolated from colonic mucosal biopsies of patient with Crohn's disease assessed as reduction in intracellular bacterial viability at 18 ug/ml after 24 hrs; type: functional, organism-based; settings: J774.A1

**Q.** Which results are given for `CO[C@H]1/C=C/O[C@@]2(C)Oc3c(C)c(O)c4c(O)c(c(/C=N/N5CCN(C)CC5)c(O)c4c3C2=O)NC(=O)/C(C)=C\C=C\[C@H](C)[C@H](O)[C@@H](C)[C@@H](O)[C@@H](C)[C@H](OC(C)=O)[C@@H]1C` [RIFAMPIN]?
**A.** Activity (Escherichia coli [1]): 0%; MIC (Escherichia coli [2]): ≥ 4 mg/L; MIC (Escherichia coli [3]): ≥ 4 mg/L; MIC (Escherichia coli [4]): 6 mg/L (≈ 7.29 µM); MBC (Escherichia coli [5]): 3 mg/L (≈ 3.65 µM); Activity (Escherichia coli [6]): 85.1%; Activity (Escherichia coli [7]): Active; Activity (Escherichia coli [8]): 32.6%; Activity (Escherichia coli [9]): 32.8%; Activity (Escherichia coli [10]): 35.8%; Activity (Escherichia coli [11]): 80.2%; Activity (J774.A1 [12]): 94.4; MIC (Escherichia coli [13]): ≥ 4 mg/L; MIC (Escherichia coli [14]): 2 mg/L (≈ 2.43 µM); MIC (Escherichia coli [15]): ≥ 4 mg/L; MIC (Escherichia coli [16]): ≥ 4 mg/L; MIC (Escherichia coli [17]): ≥ 4 mg/L; MIC (Escherichia coli [18]): ≥ 4 mg/L; MIC (Escherichia coli [19]): ≥ 4 mg/L; MIC (Escherichia coli [20]): 3 mg/L (≈ 3.65 µM); Activity (J774.A1 [21]): 90%

**Q.** Which MIC (Escherichia coli [4]) does the source give for `Cc1cc(NS(=O)(=O)c2ccc(N)cc2)no1` [SULFAMETHOXAZOLE] here?
**A.** > 1020 mg/L

**Q.** And the Activity (Escherichia coli [22])?
**A.** Active

**Q.** And the Activity (Escherichia coli [8])?
**A.** 39.8%

**Q.** And the Activity (Escherichia coli [9])?
**A.** 63.2%

**Q.** What about the Activity (Escherichia coli [10]) of the same compound?
**A.** 58.7%

**Q.** What about the Activity (Escherichia coli [11]) of the same compound?
**A.** 71.5%

**Q.** What about the Activity (J774.A1 [21]) of the same compound?
**A.** 90%

**Q.** And the Cmax [23]?
**A.** 40 µg/mL

**Q.** What does the source list for `CN(C)[C@@H]1C(O)=C(C(N)=O)C(=O)[C@@]2(O)C(O)=C3C(=O)c4c(O)cccc4[C@@](C)(O)[C@H]3C[C@@H]12` [TETRACYCLINE]?
**A.** Activity (Escherichia coli [24]): 67%; MIC (Escherichia coli [2]): ≤ 4 mg/L; MIC (Escherichia coli [3]): ≤ 4 mg/L; MIC (Escherichia coli [4]): 2 mg/L (≈ 4.5 µM); Activity (Escherichia coli [22]): Active; MBC (Escherichia coli [5]): 1 mg/L (≈ 2.25 µM); Activity (Escherichia coli [25]): 62.8%; Activity (Escherichia coli [7]): Active; Activity (Escherichia coli [8]): 44.8%; Activity (Escherichia coli [9]): 64.2%; Activity (Escherichia coli [10]): 62.4%; Activity (Escherichia coli [11]): 69.6%; MIC (Escherichia coli [13]): ≤ 4 mg/L; MIC (Escherichia coli [14]): ≤ 4 mg/L; MIC (Escherichia coli [15]): ≤ 4 mg/L; MIC (Escherichia coli [16]): ≤ 4 mg/L; MIC (Escherichia coli [17]): ≤ 4 mg/L; MIC (Escherichia coli [19]): ≤ 4 mg/L; Activity (J774.A1 [26]): 55.9; Activity (J774.A1 [21]): 90%; Cmax [27]: 1.7 µg/mL

**Q.** With `COc1cc(Cc2cnc(N)nc2N)cc(OC)c1OC` [TRIMETHOPRIM] as the compound, how does the Activity (Escherichia coli [24]) read?
**A.** 100%

**Q.** And the MIC (Escherichia coli [2])?
**A.** ≤ 4 mg/L

**Q.** And the MIC (Escherichia coli [3])?
**A.** ≤ 4 mg/L

**Q.** And the MIC (Escherichia coli [4])?
**A.** > 32 mg/L

**Q.** And the Activity (Escherichia coli [22])?
**A.** Active

**Q.** What about the MBC (Escherichia coli [5]) of the same compound?
**A.** 100 mg/L (≈ 344 µM)

**Q.** And the Activity (Escherichia coli [7])?
**A.** Active

**Q.** And the Activity (Escherichia coli [8])?
**A.** 49.1%

**Q.** What about the Activity (Escherichia coli [9]) of the same compound?
**A.** 50.2%

**Q.** What about the Activity (Escherichia coli [10]) of the same compound?
**A.** 46.9%

**Q.** What about the Activity (Escherichia coli [11]) of the same compound?
**A.** 61.7%

**Q.** What about the MIC (Escherichia coli [13]) of the same compound?
**A.** ≤ 4 mg/L

**Q.** What about the MIC (Escherichia coli [14]) of the same compound?
**A.** ≤ 4 mg/L

**Q.** What about the MIC (Escherichia coli [15]) of the same compound?
**A.** ≤ 4 mg/L

**Q.** And the MIC (Escherichia coli [16])?
**A.** ≤ 4 mg/L

**Q.** And the MIC (Escherichia coli [17])?
**A.** ≤ 4 mg/L

**Q.** What about the MIC (Escherichia coli [19]) of the same compound?
**A.** ≤ 4 mg/L

**Q.** And the Activity (J774.A1 [21])?
**A.** 90%

**Q.** What about the Cmax [28] of the same compound?
**A.** 2.3 µg/mL

**Q.** What does the source list for GENTAMICIN [listing 1 of 2 here]?
**A.** Activity (J774.A1 [21]): 90%; Cmax (Homo sapiens): 18 µg/mL

**Q.** Which Activity (Escherichia coli [24]) does the source give for GENTAMICIN [listing 2 of 2 here] here?
**A.** 100%

**Q.** What about the Activity (Escherichia coli [29]) of the same compound?
**A.** 7.8%

**Q.** What about the Activity (Escherichia coli [30]) of the same compound?
**A.** 0.3%

**Q.** What about the Activity (Escherichia coli [31]) of the same compound?
**A.** 54.8%
